In patent publication US20150148372A1, “BICYCLIC HETEROCYCLES AS BET PROTEIN INHIBITORS” (Incyte Corporation, priority 2013, published 2015) one finds IC50 data, which are given here for two compounds.

Where only a bound is given, the exact number is not on record here.

One assay has as its target T1, BRD4-BD2 (Homo sapiens, UniProt O60885).
T1 construct: 20 nM (BRD4-BD2, BPS Bioscience #31041); purchased BPS Bioscience 31041
Description: BRD4 AlphaScreen assay, BD2. It is filed as binding. As to conditions: H4Ac4 peptide, 20 nM BRD4-BD2, read-out: BRD4 BD-2 enzyme IC50. On the procedure: (§1) BRD4-BD1 and BRD4-BD2 assays were conducted in white 384-well polystyrene plate in a final volume of 20 μL for BD1 and 40 μL for BD2. Inhibitors were first serially diluted in DMSO and added to the plate wells before the addition of other reaction components. The final concentration of DMSO in the assay was 1.25% (BD1) and 0.83% (BD2). The assays were carried out at room temperature for 75 min. in the assay buffer (50 mM HEPES, pH 7.4, 100 mM NaCl, 0.05% CHAPS, 0.01% BSA), containing 50 nM Biotin-labeled tetra-acetylated histone H4 peptide (H4Ac4), 3.8 nM (BRD4-BD1, BPS Bioscience #31040) or 20 nM (BRD4-BD2, BPS Bioscience #31041). The reaction followed by the addition of 20 μL of assay buffer supplemented with Streptavidin donor beads (PerkinElmer 6760002) and GSH Acceptor beads (PerkinElmer-AL 109C) at 4 μg/mL under reduced light. After plate sealing, the plate was incubated in the dark at room temperature for 75 min. before reading on a PHERAstar FS plate reader (BMG Labtech). IC50 determination was performed by fitting the curve of percent control activity versus the log of the inhibitor concentration using the GraphPad Prism 5.0 software. IC50 data for the Examples is presented in Table 1 as determined by Assay A1.
A general note: In Alpha technology, singlet oxygen from a donor bead excites a nearby acceptor bead.

The target in another assay is T2, BRD4-BD1 (Homo sapiens, UniProt O60885).
T2 construct: 3.8 nM (BRD4-BD1, BPS Bioscience #31040); purchased BPS Bioscience 31040
Description: BRD4 AlphaScreen assay, BD1. It is filed as binding. The conditions noted are these: H4Ac4 peptide, 3.8 nM BRD4-BD1, read-out: BRD4 BD-1 enzyme IC50. Here is the method:
as §1

By IC50 is commonly meant the midpoint of a concentration-inhibition curve.

Consider `Cn1cc(-c2c(Oc3ccc(F)cc3F)ccc3[nH]c(=O)[nH]c23)c2cc[nH]c2c1=O` [Example 1, 5-(2,4-Difluorophenoxy)-4-(6-methyl-7-oxo-6,7-dihydro-H-pyrrolo[2,3-c]pyridin-4-yl)-1,3-dihydro-2H-benzimidazol-2-one], for which the results for the IC50 on BRD4-BD2 and on BRD4-BD1 were 100 to 1000 nM and 1000 to 10000 nM, respectively.

Consider `Cn1cc(-c2c(Oc3ccc(F)cc3F)ccc3[nH]cnc23)c2cc[nH]c2c1=O` [Example 2, 4-[5-(2,4-Difluorophenoxy)-1H-benzimidazol-4-yl]-6-methyl-1,6-dihydro-7H-pyrrolo[2,3-c]pyridin-7-one], for which the figures for the IC50 on BRD4-BD2 and on BRD4-BD1 were no more than 100 nM and 1000 to 10000 nM, respectively.
